Data on 9 compounds can be found in US20240148821A1, “PHARMACEUTICAL USE OF CYCLIC PEPTIDE COMPOUND” (CHUGAI SEIYAKU KABUSHIKI KAISHA, priority 2021, published 2024).

Numbered stars: 1 amine (or outer) side, 2 acyl side, 3 side chain; on linkers, the order of the positions; unused ones are H or OH. Bridge positions count the residues as written; N and C are the ends. Square brackets hold non-standard residues; d marks the D form. Peptide text beside a SMILES is read from it. * marks the point of attachment. hPhe(3,5-F2-4-CF3) = N[C@@H](CCc1cc(F)c(C(F)(F)F)c(F)c1)C(=O)O; hPhe(3-Cl-4-CF3) = N[C@@H](CCc1ccc(C(F)(F)F)c(Cl)c1)C(=O)O; hPhe(3-F,4-CF3) = N[C@@H](CCc1ccc(C(F)(F)F)c(F)c1)C(=O)O; NMePhe(4-CF3) = CN[C@@H](Cc1ccc(C(F)(F)F)cc1)C(=O)O; NMeAla(4-thiazolyl) = CN[C@@H](Cc1cscn1)C(=O)O; NMePhe(4-Cl) = CN[C@@H](Cc1ccc(Cl)cc1)C(=O)O; NMePhe(4-Me) = CN[C@@H](Cc1ccc(C)cc1)C(=O)O; hPhe(4-Cl) = N[C@@H](CCc1ccc(Cl)cc1)C(=O)O; NMedβ3hAla = C[C@H](CC(=O)[*:2])N(C)[*:1]; NMeGly(cPent) = CN[C@H](C(=O)O)C1CCCC1; Pro(4,4-F2) = O=C(O)[C@@H]1CC(F)(F)CN1; NMeCha = CN[C@@H](CC1CCCCC1)C(=O)O; NMeGly(cPr) = CN[C@H](C(=O)O)C1CC1; Gly(N-(CH2)2OEt) = CCOCCNCC(=O)O; NMeF = CN[C@@H](Cc1ccccc1)C(=O)O; NMeI = CC[C@H](C)[C@H](NC)C(=O)O; NMeD = CN[C@@H](CC(=O)O)C(=O)O; NMeL = CN[C@@H](CC(C)C)C(=O)O; NMeV = CN[C@H](C(=O)O)C(C)C; d(β3hA) = C[C@@H](N)CC(=O)O; NMeS = CN[C@@H](CO)C(=O)O; Pip = O=C(O)[C@@H]1CCCCN1; NMeA = CN[C@@H](C)C(=O)O; Piperidide = C1CCN(*)CC1; Ac5c = NC1(C(=O)O)CCCC1; Aze = O=C(O)[C@@H]1CCN1; Sar = CNCC(=O)O A value given as a limit tells only on which side of the number the result lay.

In the experiment the test system is Human pancreatic cancer cell line AsPC-1 (G12D mutation Kras). The experiment in a line: AsPC-1 cell growth inhibition (AsPC-1 CGI). The experiment is classed as cell-based. The following applies: read-out: AsPC-1 cell growth inhibition, 50% growth inhibitory concentration (IC50 value); 96 hours, CellTiter-Glo, values classified in ranges. (In general: In ATP-based viability assays light output follows the ATP content of the culture.)
Method: Test compounds were serially dilated with dimethyl sulfoxide, and 200 nL was then dispensed to a U-bottom 96-well plate using Labcyte Echo. […] The cell suspension was dispensed to a. plate containing a test compound at 100 μL per well and incubated at 37° C. in a 5% carbon dioxide gas incubator. 96 hours later, 80 μL of CellTiter-Glo (Promega) was added to each well and fluorescence was measured.
On to `CC[C@H](C)[C@@H]1NC(=O)[C@@H]2CCCCN2C(=O)C[C@@H](C(=O)N2CCCCC2)N(C)C(=O)[C@H](C(C)C)N(C)C(=O)C2(CCCC2)NC(=O)[C@@H]2CCCN2C(=O)[C@H](CCc2ccc(Cl)cc2)NC(=O)CN(C)C(=O)[C@H](CC2CCCCC2)N(C)C(=O)CN(C)C(=O)CN(C)C1=O` [Compound 841] ([Pip]I[Sar][Sar][NMeCha][Sar][hPhe(4-Cl)]P[Ac5c][NMeV][NMeD]-Piperidide; lactam N-11), for which the IC50 was greater than 0.5 µM.

On to `CC[C@H](C)[C@@H]1NC(=O)[C@H](C2CC2)N(C)C(=O)C[C@@H](C)NC(=O)[C@H](C(C)C)N(C)C(=O)C2(CCCC2)NC(=O)[C@@H]2CCCN2C(=O)[C@H](CCc2ccc(C(F)(F)F)c(Cl)c2)NC(=O)CN(C)C(=O)[C@H](CC2CCCCC2)N(C)C(=O)CN(C)C(=O)CN(C)C1=O` [Compound 844] (cyclo([Ac5c][NMeV][d(β3hA)][NMeGly(cPr)]I[Sar][Sar][NMeCha][Sar][hPhe(3-Cl-4-CF3)]P)), for which the IC50 is greater than 0.5 µM.

As to `CC[C@H](C)[C@@H]1NC(=O)[C@H](CC(C)C)N(C)C(=O)C[C@@H](C(=O)N2CCCCC2)N(C)C(=O)[C@H](COC)N(C)C(=O)C2(CCCC2)NC(=O)[C@@H]2CCCN2C(=O)[C@H](CCc2ccc(C(F)(F)F)c(Cl)c2)NC(=O)CN(C)C(=O)[C@H](CC2CCCCC2)N(C)C(=O)CN(C)C(=O)CN(C)C1=O` [Compound 850] ([NMeL]I[Sar][Sar][NMeCha][Sar][hPhe(3-Cl-4-CF3)]P[Ac5c][NMeS](Me)[NMeD]-Piperidide; lactam N-11), the IC50 was greater than 0.5 µM.

In the case of `CC[C@H](C)[C@@H]1NC(=O)[C@H](C(C)C)N(C)C(=O)C[C@@H](C)NC(=O)[C@H](CC(C)C)N(C)C(=O)C2(CCCC2)NC(=O)[C@H](CC(C)C)N(C)C(=O)[C@H](CCc2ccc(C(F)(F)F)c(F)c2)NC(=O)CN(C)C(=O)[C@H](Cc2ccc(Cl)cc2)N(C)C(=O)CN(C)C(=O)CN(C)C1=O` [Compound 851] (cyclo([Ac5c][NMeL][d(β3hA)][NMeV]I[Sar][Sar][NMePhe(4-Cl)][Sar][hPhe(3-F,4-CF3)][NMeL])), the IC50 is greater than 0.5 µM.

`CC[C@H](C)[C@@H]1NC(=O)[C@H](CC(C)C)N(C)C(=O)C[C@@H](C(=O)N(C)C)N(C)C(=O)[C@H]([C@@H](C)CC)N(C)C(=O)[C@H](C)NC(=O)[C@H](Cc2cscn2)N(C)C(=O)[C@H](CCc2ccc(C(F)(F)F)c(Cl)c2)NC(=O)CN(C)C(=O)[C@H](Cc2ccc(C)cc2)N(C)C(=O)[C@@H]2CCN2C(=O)[C@H](C)N(C)C1=O` [Compound 856] ([NMeL]I[NMeA][Aze][NMePhe(4-Me)][Sar][hPhe(3-Cl-4-CF3)][NMeAla(4-thiazolyl)]A[NMeI][NMeD]-NMe2; lactam N-11): the IC50 is greater than 0.5 µM.

`CC[C@H](C)[C@@H]1NC(=O)[C@H](C2CCCC2)N(C)C(=O)C[C@@H](C)NC(=O)[C@H](C(C)C)N(C)C(=O)C2(CCCC2)NC(=O)[C@@H]2CCCN2C(=O)[C@H](CCc2ccc(C(F)(F)F)c(Cl)c2)NC(=O)CN(C)C(=O)[C@H](CC2CCCCC2)N(C)C(=O)CN(C)C(=O)CN(C)C1=O` [Compound 857] (cyclo([Ac5c][NMeV][d(β3hA)][NMeGly(cPent)]I[Sar][Sar][NMeCha][Sar][hPhe(3-Cl-4-CF3)]P)): the IC50 was greater than 0.5 µM.

Take `CC[C@H](C)[C@@H]1NC(=O)[C@H](C)N(C)C(=O)C[C@@H](C(=O)N2CCCCC2)NC(=O)[C@H](CC(C)C)N(C)C(=O)[C@H](Cc2ccccc2)N(C)C(=O)[C@H](CC(C)C)NC(=O)[C@H](CCc2ccc(C(F)(F)F)c(Cl)c2)NC(=O)CN(C)C(=O)[C@H](Cc2ccc(Cl)cc2)N(C)C(=O)CN(C)C(=O)CN(C)C1=O` [Compound 861] ([NMeA]I[Sar][Sar][NMePhe(4-Cl)][Sar][hPhe(3-Cl-4-CF3)]L[NMeF][NMeL]D-Piperidide; lactam N-11): the IC50 is greater than 0.5 µM.

`CC[C@H](C)[C@@H]1NC(=O)[C@H](CC(C)C)N(C)C(=O)C[C@@H](C)N(C)C(=O)[C@H]([C@@H](C)CC)N(C)C(=O)C2(CCCC2)NC(=O)[C@@H]2CC(F)(F)CN2C(=O)[C@H](CCc2cc(F)c(C(F)(F)F)c(F)c2)NC(=O)CN(C)C(=O)[C@H](Cc2ccc(C(F)(F)F)cc2)N(C)C(=O)[C@@H]2CCN2C(=O)[C@H](C)N(C)C1=O` [Compound 863] (cyclo([Ac5c][NMeI][NMedβ3hAla][NMeL]I[NMeA][Aze][NMePhe(4-CF3)][Sar][hPhe(3,5-F2-4-CF3)][Pro(4,4-F2)])): the IC50 is no more than 0.02 µM.

As for `CCOCCN1CC(=O)N(C)[C@@H](CC2CCCCC2)C(=O)N(C)CC(=O)N[C@@H](CCc2ccc(C(F)(F)F)c(Cl)c2)C(=O)N2CCC[C@H]2C(=O)NC2(CCCC2)C(=O)N(C)[C@@H](C(C)C)C(=O)N[C@H](C)CC(=O)N(C)[C@@H](CC(C)C)C(=O)N[C@@H]([C@@H](C)CC)C(=O)N(C)CC1=O` [Compound 864] (cyclo([Ac5c][NMeV][d(β3hA)][NMeL]I[Sar][Gly(N-(CH2)2OEt)][NMeCha][Sar][hPhe(3-Cl-4-CF3)]P)), the IC50 was greater than 0.5 µM.
